# Measured values reported in paper PMC11647725, “Discovery of 4-(5-Membered)Heteroarylether-6-methylpicolinamide Negative Allosteric Modulators of Metabotropic Glutamate Receptor Subtype 5” (ACS Medicinal Chemistry Letters, 2024).
# How the values were obtained:
# CYP 1A2 = target: T1, CYP 1A2 (Homo sapiens, UniProt P05177); experiment: P450 inhibition in pooled human liver microsomes; assay type: in vitro ADME; details: pooled HLM, NADPH, CYP-specific probe substrates; listed as VU6043653
# T1 construct: from tissue; host or cells: pooled human liver microsomes (per the earlier reading)
# [1] = target: Platelet Activating Factor (PAF) (Homo sapiens, UniProt P25105); experiment: Lead Profiling Screen, Eurofins Panlabs; assay type: binding; details: hum, read-out: % inh at 10 μM
# Phorbol Ester = experiment: Lead Profiling Screen, Eurofins Panlabs; assay type: binding; details: mouse
# [2] = target: Serotonin (5-Hydroxytryptamine) 5-HT2B (Homo sapiens, UniProt P41595); experiment: Lead Profiling Screen, Eurofins Panlabs; assay type: binding; details: Serotonin 5-HT2B, hum, read-out: % inh at 10 μM
# [3] = target: Serotonin (5-Hydroxytryptamine) 5-HT3 (Homo sapiens, UniProt P46098); experiment: Lead Profiling Screen, Eurofins Panlabs; assay type: binding; details: Serotonin 5-HT3, hum, read-out: % inh at 10 μM
# Neuropeptide Y Y1 = Neuropeptide Y Y1 (Homo sapiens, UniProt P25929); experiment: Lead Profiling Screen, Eurofins Panlabs; assay type: binding; details: Neuropeptide Y Y1, hum, read-out: % inh at 10 μM
# CYP 2D6 = target: T2, CYP 2D6 (Homo sapiens, UniProt P10635); experiment: P450 inhibition in pooled human liver microsomes; assay type: in vitro ADME; details: pooled HLM, NADPH, CYP-specific probe substrates; listed as VU6043653
# T2 construct: from tissue; host or cells: pooled human liver microsomes (per the earlier reading)
# Muscarinic M2 = Muscarinic M2 (Homo sapiens, UniProt P08172); experiment: Lead Profiling Screen, Eurofins Panlabs; assay type: binding; details: Muscarinic M2, hum, read-out: % inh at 10 μM
# Adenosine A3 = Adenosine A3 (Homo sapiens, UniProt P0DMS8); experiment: Lead Profiling Screen, Eurofins Panlabs; assay type: binding; details: Adenosine A3, hum, read-out: % inh at 10 μM
# Source text: (§1) Nonetheless, as a non-aryl/heterobiaryl acetylene mGlu5 NAM with an encouraging in vivo rodent PK profile, we wished to further assess VU6043653 as a novel chemotype. Therefore, we compared metabolites in multiple species to better understand species differences in clearance and metabolism. […] Consistent with the high plasma clearance observed in dogs, high turnover was observed more so in dog hepatocytes than any other species tested (see the Supporting Information for additional details and results). To further evaluate our novel chemotype, the off-target and safety/toxicity profiles for this compound were further investigated.
# (§2) Table S2. Lead Profiling Screen – Eurofins Panlabs for VU6043653.
# (§3) Assay Name Species % inh at 10 μM
# (§4) Androgen (Testosterone) hum 75
# (§5) Calcium Channel L-Type, Benzothiazepine rat 22
# (§6) Calcium Channel L-Type, Dihydropyridine rat 1
# (§7) Calcium Channel N-Type rat -8
# (§8) Epidermal Growth Factor (EGF) hum -3
# (§9) GABAA, Flunitrazepam, Central rat 0
# (§10) GABAA, Muscimol, Central rat -5
# (§11) Glutamate, Kainate rat -7
# (§12) Glutamate, NMDA, Agonism rat 3
# (§13) Glutamate, NMDA, Glycine rat -18
# (§14) Glutamate, NMDA, Phencyclidine rat -4
# (§15) Imidazoline I2, Central rat -1
# Androgen (Testosterone) = Androgen (Testosterone) (Homo sapiens, UniProt P10275); experiment: Lead Profiling Screen, Eurofins Panlabs; assay type: binding; details: hum, read-out: % inh at 10 μM
# Source text: as §1, §2, §3, §4, §5, §6, §7, §8, §9, §10, §11, §12, §13, §14, §15
# [4] = test system: Purinergic P2Y, Non-Selective; experiment: Lead Profiling Screen, Eurofins Panlabs; assay type: binding; details: rat
# human mGlu5 = target: T3, human mGlu5 (Homo sapiens, UniProt P41594); experiment: Calcium mobilization assay in human mGlu5-HEK293A cells (NAM, EC80 glutamate); assay type: cell-based
# T3 construct: expressed in transfected cells
# Sigma σ1 = Sigma σ1 (Homo sapiens, UniProt Q99720); experiment: Lead Profiling Screen, Eurofins Panlabs; assay type: binding; details: Sigma σ1, hum, read-out: % inh at 10 μM
# [5] = In vivo rat pharmacokinetics; set-up: species or system Sprague–Dawley rat
# Purinergic P2X = experiment: Lead Profiling Screen, Eurofins Panlabs; assay type: binding; details: rat
# T3 sequence (P41594 21-1212): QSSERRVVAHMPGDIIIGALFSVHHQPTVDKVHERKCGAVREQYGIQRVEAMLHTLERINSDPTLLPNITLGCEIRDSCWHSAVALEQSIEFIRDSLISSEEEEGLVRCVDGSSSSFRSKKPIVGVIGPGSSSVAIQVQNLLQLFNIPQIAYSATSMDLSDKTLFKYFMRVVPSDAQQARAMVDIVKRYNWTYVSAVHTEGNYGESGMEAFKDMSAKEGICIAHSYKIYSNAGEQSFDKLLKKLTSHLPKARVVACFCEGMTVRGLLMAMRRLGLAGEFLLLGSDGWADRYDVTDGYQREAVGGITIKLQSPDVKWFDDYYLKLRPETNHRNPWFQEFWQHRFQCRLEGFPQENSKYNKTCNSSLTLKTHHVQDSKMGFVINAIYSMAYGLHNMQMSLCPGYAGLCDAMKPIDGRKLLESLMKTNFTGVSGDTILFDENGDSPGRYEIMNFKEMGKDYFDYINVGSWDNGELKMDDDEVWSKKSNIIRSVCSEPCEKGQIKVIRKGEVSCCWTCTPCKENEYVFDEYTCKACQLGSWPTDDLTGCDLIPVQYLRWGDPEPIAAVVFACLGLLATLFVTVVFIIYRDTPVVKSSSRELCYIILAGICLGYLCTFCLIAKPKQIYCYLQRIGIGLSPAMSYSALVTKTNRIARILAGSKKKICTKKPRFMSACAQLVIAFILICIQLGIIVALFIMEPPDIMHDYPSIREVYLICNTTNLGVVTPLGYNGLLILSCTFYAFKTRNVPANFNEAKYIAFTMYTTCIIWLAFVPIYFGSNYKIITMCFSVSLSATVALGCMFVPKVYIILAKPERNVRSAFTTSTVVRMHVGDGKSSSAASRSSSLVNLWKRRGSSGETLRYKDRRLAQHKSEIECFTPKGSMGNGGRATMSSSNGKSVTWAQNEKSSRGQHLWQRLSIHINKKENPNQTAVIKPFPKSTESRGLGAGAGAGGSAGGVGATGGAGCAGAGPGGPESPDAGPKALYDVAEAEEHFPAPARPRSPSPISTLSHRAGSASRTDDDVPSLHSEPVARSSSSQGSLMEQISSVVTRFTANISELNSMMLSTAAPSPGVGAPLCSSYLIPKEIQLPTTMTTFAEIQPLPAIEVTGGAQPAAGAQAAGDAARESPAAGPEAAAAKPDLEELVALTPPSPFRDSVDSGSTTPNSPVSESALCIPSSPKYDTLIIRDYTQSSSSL
# T2 sequence (P10635 whole entry): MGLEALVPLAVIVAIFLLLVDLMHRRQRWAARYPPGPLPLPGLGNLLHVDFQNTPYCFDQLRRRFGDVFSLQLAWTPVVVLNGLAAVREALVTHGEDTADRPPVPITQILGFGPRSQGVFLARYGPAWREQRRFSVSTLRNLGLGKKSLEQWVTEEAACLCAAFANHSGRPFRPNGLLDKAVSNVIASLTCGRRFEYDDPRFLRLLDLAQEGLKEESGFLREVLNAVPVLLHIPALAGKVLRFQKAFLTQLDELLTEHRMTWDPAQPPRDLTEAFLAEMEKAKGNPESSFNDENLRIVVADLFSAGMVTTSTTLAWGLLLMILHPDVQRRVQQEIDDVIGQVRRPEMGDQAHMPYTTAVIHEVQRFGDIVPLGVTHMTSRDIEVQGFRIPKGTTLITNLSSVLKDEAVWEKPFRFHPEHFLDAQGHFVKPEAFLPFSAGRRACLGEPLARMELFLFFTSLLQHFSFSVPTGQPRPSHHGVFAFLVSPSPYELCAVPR
# T1 sequence (P05177 whole entry): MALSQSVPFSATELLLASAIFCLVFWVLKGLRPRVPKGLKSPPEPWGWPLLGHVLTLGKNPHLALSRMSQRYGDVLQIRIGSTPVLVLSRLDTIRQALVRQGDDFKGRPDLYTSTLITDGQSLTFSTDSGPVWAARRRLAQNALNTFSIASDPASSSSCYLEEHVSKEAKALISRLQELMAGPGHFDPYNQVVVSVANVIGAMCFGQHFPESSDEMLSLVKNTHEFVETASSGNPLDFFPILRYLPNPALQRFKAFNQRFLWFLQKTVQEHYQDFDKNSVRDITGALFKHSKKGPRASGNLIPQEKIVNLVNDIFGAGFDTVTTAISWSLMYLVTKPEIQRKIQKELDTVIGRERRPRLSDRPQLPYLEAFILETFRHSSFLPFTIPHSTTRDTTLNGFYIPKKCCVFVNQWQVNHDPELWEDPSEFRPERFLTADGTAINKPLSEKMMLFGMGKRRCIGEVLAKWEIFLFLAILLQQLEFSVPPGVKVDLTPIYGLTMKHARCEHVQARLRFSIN
# Chain of Neuropeptide Y Y1 (P25929 whole entry): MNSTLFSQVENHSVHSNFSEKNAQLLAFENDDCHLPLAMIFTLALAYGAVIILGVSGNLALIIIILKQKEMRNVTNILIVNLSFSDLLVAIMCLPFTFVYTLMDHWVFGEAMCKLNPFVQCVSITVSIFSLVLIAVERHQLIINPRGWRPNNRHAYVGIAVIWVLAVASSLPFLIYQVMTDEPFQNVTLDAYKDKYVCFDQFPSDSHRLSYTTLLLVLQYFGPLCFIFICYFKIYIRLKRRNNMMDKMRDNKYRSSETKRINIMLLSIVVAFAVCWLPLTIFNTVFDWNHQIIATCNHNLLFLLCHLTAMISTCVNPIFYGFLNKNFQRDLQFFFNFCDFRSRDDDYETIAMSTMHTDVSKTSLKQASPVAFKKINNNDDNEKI
# Chain of Androgen (Testosterone) (P10275 whole entry): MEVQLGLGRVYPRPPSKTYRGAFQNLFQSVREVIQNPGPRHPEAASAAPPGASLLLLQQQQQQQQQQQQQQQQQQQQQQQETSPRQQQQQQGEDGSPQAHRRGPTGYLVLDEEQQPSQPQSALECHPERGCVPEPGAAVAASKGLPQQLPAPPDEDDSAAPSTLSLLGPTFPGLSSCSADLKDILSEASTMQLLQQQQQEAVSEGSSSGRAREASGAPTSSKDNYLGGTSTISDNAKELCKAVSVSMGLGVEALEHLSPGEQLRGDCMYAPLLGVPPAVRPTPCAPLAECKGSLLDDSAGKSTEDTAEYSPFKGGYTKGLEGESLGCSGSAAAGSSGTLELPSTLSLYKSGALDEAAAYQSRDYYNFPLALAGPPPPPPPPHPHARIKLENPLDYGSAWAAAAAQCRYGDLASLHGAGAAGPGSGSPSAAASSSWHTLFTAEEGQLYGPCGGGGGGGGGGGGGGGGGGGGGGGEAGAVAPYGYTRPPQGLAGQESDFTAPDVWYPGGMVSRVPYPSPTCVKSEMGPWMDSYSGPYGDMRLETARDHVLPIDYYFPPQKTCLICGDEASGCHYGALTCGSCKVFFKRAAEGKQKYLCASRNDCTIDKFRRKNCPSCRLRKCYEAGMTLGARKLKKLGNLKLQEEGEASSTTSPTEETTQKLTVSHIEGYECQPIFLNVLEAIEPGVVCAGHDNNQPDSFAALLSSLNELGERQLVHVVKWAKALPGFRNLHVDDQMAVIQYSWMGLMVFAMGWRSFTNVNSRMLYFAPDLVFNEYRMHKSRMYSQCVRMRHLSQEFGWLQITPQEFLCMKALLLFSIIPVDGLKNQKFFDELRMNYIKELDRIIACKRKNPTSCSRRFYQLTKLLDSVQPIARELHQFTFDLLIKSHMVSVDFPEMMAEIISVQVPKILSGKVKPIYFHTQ
# Chain of Adenosine A3 (P0DMS8 whole entry): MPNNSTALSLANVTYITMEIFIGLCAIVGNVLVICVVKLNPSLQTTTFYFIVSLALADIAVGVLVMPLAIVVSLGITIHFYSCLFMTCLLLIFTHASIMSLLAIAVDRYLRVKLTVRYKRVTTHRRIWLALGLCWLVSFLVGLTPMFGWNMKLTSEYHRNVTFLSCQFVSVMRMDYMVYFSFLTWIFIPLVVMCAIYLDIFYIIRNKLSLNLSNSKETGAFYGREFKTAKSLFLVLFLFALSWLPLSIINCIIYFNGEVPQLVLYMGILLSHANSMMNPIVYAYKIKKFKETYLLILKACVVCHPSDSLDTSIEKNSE
# Chain of Platelet Activating Factor (PAF) (P25105 whole entry): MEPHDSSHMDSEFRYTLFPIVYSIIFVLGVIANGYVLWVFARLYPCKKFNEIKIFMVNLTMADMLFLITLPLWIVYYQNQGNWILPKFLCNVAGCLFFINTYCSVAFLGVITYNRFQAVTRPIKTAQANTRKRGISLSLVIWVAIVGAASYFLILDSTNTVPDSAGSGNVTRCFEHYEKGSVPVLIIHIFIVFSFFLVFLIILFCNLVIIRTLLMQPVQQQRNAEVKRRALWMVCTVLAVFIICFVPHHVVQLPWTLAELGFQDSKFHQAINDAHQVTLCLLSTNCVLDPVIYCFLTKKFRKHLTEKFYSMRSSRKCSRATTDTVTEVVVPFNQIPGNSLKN
# Chain of Serotonin (5-Hydroxytryptamine) 5-HT2B (P41595 whole entry): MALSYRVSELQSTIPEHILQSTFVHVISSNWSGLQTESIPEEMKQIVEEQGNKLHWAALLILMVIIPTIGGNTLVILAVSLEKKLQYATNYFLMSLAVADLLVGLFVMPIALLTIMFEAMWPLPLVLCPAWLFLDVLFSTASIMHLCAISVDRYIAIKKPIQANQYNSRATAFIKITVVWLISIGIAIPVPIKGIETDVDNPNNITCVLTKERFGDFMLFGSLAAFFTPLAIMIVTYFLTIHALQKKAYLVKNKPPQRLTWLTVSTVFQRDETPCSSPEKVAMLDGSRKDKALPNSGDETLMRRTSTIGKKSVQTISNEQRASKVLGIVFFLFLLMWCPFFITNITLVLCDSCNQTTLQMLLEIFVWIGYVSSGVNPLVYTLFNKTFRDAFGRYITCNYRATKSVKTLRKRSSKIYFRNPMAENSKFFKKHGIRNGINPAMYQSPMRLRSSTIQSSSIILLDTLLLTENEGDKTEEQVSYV
# Chain of Sigma σ1 (Q99720 whole entry): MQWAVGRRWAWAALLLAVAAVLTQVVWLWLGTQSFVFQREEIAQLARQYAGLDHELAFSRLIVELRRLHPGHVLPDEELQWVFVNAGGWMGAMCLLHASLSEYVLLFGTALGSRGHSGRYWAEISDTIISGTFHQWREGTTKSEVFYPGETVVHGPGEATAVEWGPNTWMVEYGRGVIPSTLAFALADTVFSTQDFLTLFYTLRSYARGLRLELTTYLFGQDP
smiles,measurement,setting,value
Cc1cc(Oc2cnn(C)c2)cc(C(=O)Nc2ccc(F)cn2)n1 [22iA],IC50,CYP 1A2,≥ 30 µM
same,inhibition at 10 µM,[1],3%
same,% inh at 10 μM,Phorbol Ester,-1%
same,inhibition at 10 µM,[2],40%
same,inhibition at 10 µM,[3],-6%
same,inhibition at 10 µM,Neuropeptide Y Y1,-2%
same,IC50,CYP 2D6,≥ 30 µM
same,inhibition at 10 µM,Muscarinic M2,-2%
same,inhibition at 10 µM,Adenosine A3,≥ 70%
same,inhibition at 10 µM,Androgen (Testosterone),≥ 70%
same,% inh at 10 μM,[4],9%
same,fold increase in hmGlu5 potency,"human mGlu5; 22fC vs 22bC, 22gA vs 22iA, 22iA vs 22hA, 22iB vs 22hB",1.6 fold
same,% GluMin,"human mGlu5; efficacy of the NAM to reduce an EC80 response of glutamate, human mGlu5-HEK293A cells",2%
same,pIC50,"human mGlu5; human mGlu5-HEK293A cells, EC80 fixed concentration of glutamate, n = 2 in triplicate",6.49
same,IC50,"human mGlu5; human mGlu5-HEK293A cells, EC80 fixed concentration of glutamate, read-out: hmGlu5 IC50",0.325 µM
same,inhibition at 10 µM,Sigma σ1,0%
same,CLp,"[5]; Rat (SD), IV 1.0 mg/kg",41 mL/min/kg
same,MRT,"[5]; Rat (SD), IV 1.0 mg/kg",50.4 min
same,Vss,"[5]; Rat (SD), IV 1.0 mg/kg",2.0 L/kg
same,t1/2,"[5]; Rat (SD), IV 1.0 mg/kg",44.4 min
same,AUC0-∞,"[5]; Rat (SD), PO 10.0 mg/kg",1320 ng·h/mL
same,Cmax,"[5]; Rat (SD), PO 10.0 mg/kg",402 ng/mL
same,Tmax,"[5]; Rat (SD), PO 10.0 mg/kg",117 min
same,%F,"[5]; Rat (SD), PO 10.0 mg/kg, oral bioavailability",43%
same,half-life,"[5]; Sprague-Dawley, rat, plasma, intravenous, 1 mg/kg, rats, value as given in running text, read-out: elimination t1/2",~45 min
same,bioavailability,"[5]; Sprague-Dawley, rat, plasma, po, 10 mg/kg",40%
same,% inh at 10 μM,Purinergic P2X,15%
